US5561131A, “Defaunation method” (Mallinckrodt Veterinary, Inc., priority 1991, dated 1996)

System: rumen ciliate protozoa
Test: In vitro activity of defaunation compounds against rumen ciliate protozoa
Assay type: cell-based
Settings: 39° C., anaerobic, 3 hours, tested at 50, 150, 250 and 500 ppm
Experimental: Compounds of Table 1 were tested for their toxicity against rumen ciliate protozoa by firstly isolating protozoa from rumen liquor collected from faunated animals. The rumen liquor was then centrifuged at 500 g for five minutes and the supernatant discarded. The protozoal-rich sediment was then reconstituted in McDougal's artificial saliva. Residual bacteria were suppressed by using a combination of two antibiotics at low concentration. Nitrogen and energy substrate was optimized for the protozoal preparation. At all times the protozoal preparation was maintained at 39° C. and kept anaerobic.
Sixty milligrams of each the compounds of Table 1 were dissolved in 1.2 ml of dimethyl sulphoxide and dispersed in triplicate to achieve a final concentration of 50, 150, 250 and 500 ppm. Ten milliliters of protozoal preparation was then added to each tube. After every second compound, control tubes were included which contained everything except for compound. The tubes, to which a 5 ml glass syringe was attached, were then incubated for 3 hours in a water bath at 39° C. The production of gas causes the syringe plunger to be displaced.
At the end of the incubation period, the volume of gas produced was recorded and the viability of the protozoa assessed visually using a microscope. The toxicity of the compounds to protozoa was assessed from both the reduction in gas produced relative to the control and by direct observation of the protozoa for movement of cilia.

| SMILES | Conc Required to Kill all Protozoa |
| --- | --- |
| COc1ccc(Nc2nc(Cl)nc(Cl)n2)c(C)c1 [Compound 13] | 250 ppm |
| CSc1cccc(Nc2nc(Cl)nc(Cl)n2)c1 [Compound 15] | 150 ppm |
| CC(C)(C)c1ccc(Nc2nc(Cl)nc(Cl)n2)cc1 [Compound 20] | 150 ppm |
| O=[N+]([O-])c1cccc(Nc2nc(Cl)nc(Cl)n2)c1 [Compound 16] | 250 ppm |
| Cc1cc(C)c(Nc2nc(Cl)nc(Cl)n2)c(C)c1 [Compound 9] | 250 ppm |
| CSc1ccc(Nc2nc(Cl)nc(Cl)n2)cc1 [Compound 18] | 150 ppm |
| Cc1ccc(N(C)c2nc(Cl)nc(Cl)n2)c(C)c1 [Compound 12] | 250 ppm |
| CN(c1ccc(Cl)c(Cl)c1)c1nc(Cl)nc(Cl)n1 [Compound 29] | 150 ppm |
| CC(C)c1ccc(Nc2nc(Cl)nc(Cl)n2)cc1 [Compound 21] | 150 ppm |
| Clc1nc(Cl)nc(Nc2ccc(I)cc2)n1 [Compound 11] | 250 ppm |
| Cc1ccc(N(C)c2nc(Cl)nc(Cl)n2)cc1 [Compound 33] | 250 ppm |

System: rumen bacteria
Test: In vitro bacterial gas inhibition
Assay type: cell-based
Settings: at the concentration known to kill protozoa
Experimental: Compounds of Table 1 were also tested for toxicity bacteria. This involved removing protozoa from rumen liquor by centrifugation at 2,000 g for 5 minutes and collecting the bacterial rich supernatant. Nitrogen and energy substrate was added to the bacterial preparation which was then dispensed in triplicate 10 ml volumes over the same range of compound concentrations (50, 150, 250 and 500 ppm.) referred to in Example 2. Control tubes were placed after every second compound to enable the inhibition of gas resulting from the compound to be assessed. […] It can be seen that these compounds are selective in their mode of action, in that they are more toxic to protozoa than bacteria.

| SMILES | Bact. Gas Inhibition at the conc. required to kill protozoa |
| --- | --- |
| COc1ccc(Nc2nc(Cl)nc(Cl)n2)c(C)c1 [Compound 13] | 48 |
| CSc1cccc(Nc2nc(Cl)nc(Cl)n2)c1 [Compound 15] | 52 |
| CC(C)(C)c1ccc(Nc2nc(Cl)nc(Cl)n2)cc1 [Compound 20] | 55 |
| O=[N+]([O-])c1cccc(Nc2nc(Cl)nc(Cl)n2)c1 [Compound 16] | 47 |
| Cc1cc(C)c(Nc2nc(Cl)nc(Cl)n2)c(C)c1 [Compound 9] | 41 |
| CSc1ccc(Nc2nc(Cl)nc(Cl)n2)cc1 [Compound 18] | 53 |
| Cc1ccc(N(C)c2nc(Cl)nc(Cl)n2)c(C)c1 [Compound 12] | 35 |
| CN(c1ccc(Cl)c(Cl)c1)c1nc(Cl)nc(Cl)n1 [Compound 29] | 41 |
| CC(C)c1ccc(Nc2nc(Cl)nc(Cl)n2)cc1 [Compound 21] | 55 |
| Clc1nc(Cl)nc(Nc2ccc(I)cc2)n1 [Compound 11] | 71 |
| Cc1ccc(N(C)c2nc(Cl)nc(Cl)n2)cc1 [Compound 33] | 33 |

System: mice
Test: Mouse safety assessment
Assay type: in vivo
Settings: oral gavage, 830, 415 and 217 mg/kg, observed for 2 days
Experimental: Compounds of Table 1 chosen for testing in sheep were first tested in mice for signs of toxicity. Because sheep are approximately 5 times more sensitive than mice to compounds dosed orally, the dose rates applied to mice were 5 times greater than the target dose rate of 500 ppm. in rumen liquor (83 mg/kg live weight) used for sheep. Each compound was screened at three different dose levels, high (830 mg/kg), medium (415 mg/kg) and low (217 mg/kg).
252 mg of compound was used for dilution into a high medium and low dose rate. 252 mg of compound was mixed with 3 ml of G1284 solution (4% w/v ethoxylated castor oil and 0.05% w/v simethicone), to form the high dose composition. The medium dose composition was formed by diluting 1.5 ml of the high dose with 1.5 ml of G1284 solution. The low dose composition was formed by diluting 1.5 ml of the medium dose with 1.5 ml of G1284 solution. Before the high dose could be diluted it was first manually ball milled in an effort to produce a fine suspension of the compound.
All mice were weighed before dosing to calculate the appropriate dose rate. The calculation for dose rate was: [formula]
Each mouse was dosed using the Gavage method. With this method the mouse is dosed orally by way of an angled hypodermic needle (18 g) with a smooth spherical end. It is gently placed down the esophagus. All care must be taken not to force the needle and injure the esophagus or dose into the lungs.
Observations were made at 10, 30, 60 and 120 minutes after dosing, then every 1 or 2 hours for the first 6 hours.
Mice were usually observed for 2 days.
Typically, few compounds fell within the poor classification. The majority of compounds tested were either in the fair or good classification.

| SMILES | Mouse Safety Assessment |
| --- | --- |
| CSc1cccc(Nc2nc(Cl)nc(Cl)n2)c1 [Compound 15] | Fair (>2 mice sick) |
| CC(C)(C)c1ccc(Nc2nc(Cl)nc(Cl)n2)cc1 [Compound 20] | Fair (>2 mice sick) |
| Cc1cc(C)c(Nc2nc(Cl)nc(Cl)n2)c(C)c1 [Compound 9] | Good |
| CSc1ccc(Nc2nc(Cl)nc(Cl)n2)cc1 [Compound 18] | Fair (>2 mice sick) |
| CN(c1ccc(Cl)c(Cl)c1)c1nc(Cl)nc(Cl)n1 [Compound 29] | Fair (>2 mice sick) |
| CC(C)c1ccc(Nc2nc(Cl)nc(Cl)n2)cc1 [Compound 21] | Fair (>2 mice sick) |
| Clc1nc(Cl)nc(Nc2ccc(I)cc2)n1 [Compound 11] | Fair (>2 mice sick) |

System: rumen ciliate protozoa
Test: Protozoal reduction in sheep
Assay type: in vivo
Design: concentration or dose not given beside the values
Settings: one week after dosing, relative to predosing numbers
Experimental: Defaunation compositions were prepared according to the method of Example 1.
Prior to dosing of the compound, a sample of rumen liquor (200 ml) was withdrawn to establish basal numbers of protozoa.
The sample was collected using a stomach tube, inserted into the rumen via a rumen cannula (fistulated animals) or per esophagus (intact animals). After straining the sample was well mixed using a magnetic stirrer and a 0.5 ml sample was withdrawn and added to 49.5 ml of a crystal violet stain. Protozoa were counted using a microscope and a Hawksley counting chamber.
One week after administering the compound, another rumen liquor sample was collected (as described above) and examined for the presence of protozoa. Where rumen ciliate protozoa were undetectable, a reduction or inhibition value of 100% was recorded. In general, most compounds expressed a strong inhibitory effect on protozoal populations.

| SMILES | Protozoal Reduction |
| --- | --- |
| CSc1cccc(Nc2nc(Cl)nc(Cl)n2)c1 [Compound 15] | 100% |
| CC(C)(C)c1ccc(Nc2nc(Cl)nc(Cl)n2)cc1 [Compound 20] | 100% |
| O=[N+]([O-])c1cccc(Nc2nc(Cl)nc(Cl)n2)c1 [Compound 16] | 72% |
| Cc1cc(C)c(Nc2nc(Cl)nc(Cl)n2)c(C)c1 [Compound 9] | 88% |
| CSc1ccc(Nc2nc(Cl)nc(Cl)n2)cc1 [Compound 18] | 100% |
| CN(c1ccc(Cl)c(Cl)c1)c1nc(Cl)nc(Cl)n1 [Compound 29] | 98% |
| CC(C)c1ccc(Nc2nc(Cl)nc(Cl)n2)cc1 [Compound 21] | 100% |
| Clc1nc(Cl)nc(Nc2ccc(I)cc2)n1 [Compound 11] | 84% |

System: rumen bacteria
Test: Bacterial viability in sheep after administering defaunation compounds
Assay type: in vivo
Settings: gas production one week after dosing vs pre-dosing
Experimental: In order to establish what effect the compounds had on the viability of rumen bacteria, a sample of rumen liquor was collected prior to dosing of the compound. The sample was withdrawn under vacuum using a pre-warmed tube inserted into the rumen through a rumen cannula. The sample was collected in a pre-warmed (39° C.) flask, gassed with carbon dioxide and covered. Two-pre-warmed 30 ml centrifuge tubes were then filled with well mixed rumen liquor and centrifuged at 2000 rpm for 5 minutes. Half the volume of each tube was then poured into another pre-warmed tube without disturbing the sediment. Three lots of 10 ml of this rumen liquor were then pipetted into 15 ml tubes which contained 10 μL of urea solution (40% w/v and 300 μL of glucose solution (50% w/v). The urea and glucose acted as substrate for the bacteria. The tubes were then gassed with carbon dioxide, stoppered and placed in a water bath at 39° C. After 10 minutes a 5 ml glass syringe was secured into the stoppers (through which a hypodermic needle had been inserted) and the gas collected for five hours and recorded.
This bacterial viability measure was then repeated one week after dosing with each of the compounds referred to in Table 1. Defaunation compositions were prepared according to the method of Example 1. The amount of gas produced was then compared with the pre-dosing level. The criterion for classifying post-dosing bacterial viability is shown below:
Poor--reduction in post-dosing gas production relative to pre-dosing levels.
OK--post-dosing gas production the same as pre-dosing levels.
Good--increase in post-dosing gas production relative to pre-dosing levels.

| SMILES | Bacterial Viability |
| --- | --- |
| CSc1cccc(Nc2nc(Cl)nc(Cl)n2)c1 [Compound 15] | Good |
| CC(C)(C)c1ccc(Nc2nc(Cl)nc(Cl)n2)cc1 [Compound 20] | Okay |
| O=[N+]([O-])c1cccc(Nc2nc(Cl)nc(Cl)n2)c1 [Compound 16] | Good |
| Cc1cc(C)c(Nc2nc(Cl)nc(Cl)n2)c(C)c1 [Compound 9] | Good |
| CSc1ccc(Nc2nc(Cl)nc(Cl)n2)cc1 [Compound 18] | Okay |
| CN(c1ccc(Cl)c(Cl)c1)c1nc(Cl)nc(Cl)n1 [Compound 29] | Good |
| CC(C)c1ccc(Nc2nc(Cl)nc(Cl)n2)cc1 [Compound 21] | Good |
| Clc1nc(Cl)nc(Nc2ccc(I)cc2)n1 [Compound 11] | Okay |

System: not listed separately
Test: Effect of defaunation compounds on feed intake of sheep
Assay type: in vivo
Settings: after dosing vs pre-dosing intake
Experimental: Sheep were allowed a minimum of three weeks to adapt to their ration of 900 g of oaten chaff and 100 g of Lucerne chaff. The pre-dosing level of intake for each animal was established from the mean of five days intake immediately prior to dosing. Any effects of administering the compound on feed intake was then determined by measuring the level of feed intake after dosing.
The criteria of classifying the effect on food intake are shown below.
Poor--greater than 50% reduction in feed intake during the first week after dosing.
Fair--greater than 50% reduction in feed intake on the day following dosing but less then 50% reduction one week after dosing.
OK--transient drop in feed intake which is less than 50% on the day after dosing.
Good--No reduction in feed intake following dosing.

| SMILES | Feed Intake |
| --- | --- |
| CSc1cccc(Nc2nc(Cl)nc(Cl)n2)c1 [Compound 15] | Good |
| CC(C)(C)c1ccc(Nc2nc(Cl)nc(Cl)n2)cc1 [Compound 20] | Good |
| O=[N+]([O-])c1cccc(Nc2nc(Cl)nc(Cl)n2)c1 [Compound 16] | Good |
| Cc1cc(C)c(Nc2nc(Cl)nc(Cl)n2)c(C)c1 [Compound 9] | Good |
| CSc1ccc(Nc2nc(Cl)nc(Cl)n2)cc1 [Compound 18] | Okay (transient drop, less than 50% at day 2) |
| CN(c1ccc(Cl)c(Cl)c1)c1nc(Cl)nc(Cl)n1 [Compound 29] | Good |
| CC(C)c1ccc(Nc2nc(Cl)nc(Cl)n2)cc1 [Compound 21] | Good |
| Clc1nc(Cl)nc(Nc2ccc(I)cc2)n1 [Compound 11] | Good |
